Reference: patent publication US20070249555A1, “Use of Atp Analogues for Treatment of Cardiovascular Diseases” (INSTITUT NATIONAL DE LA SANTE ET DE LA RECHERCHE MEDICALE …, priority 2004, published 2007)

Legend:
[1] = system: HepG2 cells; experiment: TG-HDL2 internalization by HepG2 cells; format: cell-based, human; details: 10 min at 37° C.
Experimental: Cells were incubated for 10 minutes at 37° C. with 75 μg/ml^125I-TG-HDL2 without (control) or with apolipoprotein A-I 10 μg/ml (a), ADP 100 nM (b), AR-C69931MX 100 nM (c), ADP 100 nM+AR-C69931MX 100 nM (d), ADP 100 nM+[…] 100 μM (e), ADP 100 nM+MRS2179 10 μM (f). […] Internalization assays were performed as described in Guendouzi et al., (Biochemistry, 1998, 37: 14974-80) on HepG2 cells, obtained from the American Type Culture Collection ([…]). Cells were incubated for 10 minutes at 37° C. with 75 μg/ml of either ^125I-TG-HDL2, ^125I-HDL3 or ^125I-LDL. After washing and dissociation at 4° C. in phosphate buffered saline (PBS), cell radioactivity was determined using a Wallac 1261 multigamma apparatus. Prior experiments, cells were plated in polylysine-coated 24-multiwell plates (Falcon) at 4×10^4 cells per well. Cells were grown in Dulbecco's modified Eagles medium supplemented with 10% fetal calf serum, 100 units/ml penicillin, and 100 μg/ml streptomycin at 37° C. in a 5% CO2 and 95% air incubator. Medium was changed every 2 or 3 days, and the cells were subcultured every 7-8 days. Results are expressed as a percentage of internalization with respect to the control value (set at 0). Control corresponded to a basal value of internalization, amounting to 400 ng, 300 ng, 200 ng of TG-HDL2, HDL3 and LDL per mg of cells protein respectively for 10 minutes. Data as a mean ±SEM of at least 7, 5, 6 independent experiments, for TG-HDL2, HDL3 and LDL respectively.

[2] = target: T1, human P2Y1 receptor (Homo sapiens, UniProt P47900); experiment: TG-HDL2 internalization by HepG2 cells after P2Y1 receptor silencing by siRNA; format: cell-based; details: HepG2, pool of 4 P2Y1 siRNAs 100 nM, 48 h; apoA-I 10 μg/ml, ADP 100 nM, AR-C69931MX 100 nM
T1 construct: host or cells: HepG2
Experimental: HepG2 cells were transiently transfected with siRNA designated to human P2Y1 receptor (columns d, e, f, g) or with non specific siRNA as control (a, b, c). 48 hours later, cells were incubated for 10 minutes at 37° C. with 75 μg/ml ^125I-TG HDL2 without (control) or with apolipoprotein A-I 10 μg/ml (a and d), ADP 100 nM (b and e), AR-C69931MX 100 nM (c and f), PBS (g). Data are expressed as a percentage of internalized radioactivity with respect to the control value (set as 0) (n>5); (*) p<0.05 (unpaired t-test).
(§1) Internalization assays were performed as described in Guendouzi et al., (Biochemistry, 1998, 37: 14974-80) on HepG2 cells, obtained from the American Type Culture Collection ([…]). Cells were incubated for 10 minutes at 37° C. with 75 μg/ml of either ^125I-TG-HDL2, ^125I-HDL3 or ^125I-LDL. After washing and dissociation at 4° C. in phosphate buffered saline (PBS), cell radioactivity was determined using a Wallac 1261 multigamma apparatus.
(§2) The silencing of the different P2Y receptors were carried-out using the siRNA technique. The siRNA sequenced targeting human P2Y13 receptor (Gene Bank GB/EMBL/DDBJ accession number AF295368) was from position 406 or 359 relative to the start codon. The siRNA duplex (21-nt-RNAs) in deprotected and desalted form, the siRNA targeting human P2Y1 receptor (a mix of 4 siRNAs, M-005689), and the non-specific control siRNA (D-001206-01) were purchased from Dharmacon Inc. Subconfluent HepG2 cells were transiently transfected with siRNAs (final concentration, 100 nM) using Oligofectamine™ according to the manufacturer's protocole (Invitrogen). Cells were usually assayed 48 hours after transfection. Specific silencing effect was confirmed by at least three independent experiments.
Results are expressed as a percentage of internalization with respect to the control value (set at 0). Control corresponded to a basal value of internalization, amounting to 400 ng, 300 ng, 200 ng of TG-HDL2, HDL3 and LDL per mg of cells protein respectively for 10 minutes. […]

[3] = target: T2, human P2Y13 receptor (Homo sapiens, UniProt Q9BPV8); experiment: TG-HDL2 internalization by HepG2 cells after P2Y13 receptor silencing by siRNA; format: cell-based; details: HepG2, P2Y13 siRNA 100 nM, 48 h; apoA-I 10 μg/ml, ADP 100 nM, AR-C69931MX 100 nM
T2 construct: host or cells: HepG2
T2 sequence (Q9BPV8 1-354): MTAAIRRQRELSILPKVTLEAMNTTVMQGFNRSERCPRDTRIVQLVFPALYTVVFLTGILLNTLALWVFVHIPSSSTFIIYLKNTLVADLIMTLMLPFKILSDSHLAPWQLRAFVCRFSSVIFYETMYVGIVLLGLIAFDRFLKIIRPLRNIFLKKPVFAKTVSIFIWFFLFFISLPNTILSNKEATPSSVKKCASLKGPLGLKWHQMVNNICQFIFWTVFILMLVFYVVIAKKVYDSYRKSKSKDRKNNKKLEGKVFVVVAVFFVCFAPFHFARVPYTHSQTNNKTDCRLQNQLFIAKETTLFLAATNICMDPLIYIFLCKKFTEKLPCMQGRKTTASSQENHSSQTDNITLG
Experimental: Experiment was performed as in FIG. 2A with non-specific control siRNA (a, b, c) or with siRNA directed to human P2Y13 receptor (d, e, f, g) (n>7); (*) p<0.05 (unpaired t-test).
as §1, §2
Results are expressed as a percentage of internalization with respect to the control value (set at 0). Control corresponded to a basal value of internalization, amounting to 400 ng, 300 ng, 200 ng of TG-HDL2, HDL3 and LDL per mg of cells protein respectively for 10 minutes. Data as a mean ±SEM of at least 7, 5, 6 independent experiments, for TG-HDL2, HDL3 and LDL respectively.

[4] = target: T2, human P2Y13 receptor; experiment: HDL3 internalization by HepG2 cells after P2Y13 receptor silencing by siRNA; format: cell-based; details: 75 μg/ml 125I-HDL3, ADP 100 nM, AR-C69931MX 100 nM
Experimental: Cells were transiently transfected with siRNA designated to human P2Y13 receptor (column c, d, e). 48 hours later, cells were incubated for 10 minutes at 37° C. with 75 μg/ml ^125I-HDL3 without (control) or with ADP 100 nM (a and c), AR-C69931MX 100 nM (b and d), PBS (e) (n>5); (*) p<0.05 (unpaired t-test).
as §1
The silencing of the different P2Y receptors were carried-out using the siRNA technique. The siRNA sequenced targeting human P2Y13 receptor (Gene Bank GB/EMBL/DDBJ accession number AF295368) was from position 406 or 359 relative to the start codon. […]
(§3) Results are expressed as a percentage of internalization with respect to the control value (set at 0). […]

[5] = system: HepG2 cells; experiment: LDL internalization by HepG2 cells, without or with P2Y13 receptor silencing; format: cell-based, human; details: HepG2, 75 μg/ml 125I-LDL, 100 nM, both without or with P2Y13 receptors silencing
Experimental: Experiment was performed as in FIG. 2C except that HepG2 cells were incubated for 10 minutes at 37° C. with 75 μg/ml ^125I-LDL (n>6).
as §1
as §2, with “Specific silencing effect was confirmed by at least three independent experiments.” left out
as §3

T1 sequence (P47900 whole entry): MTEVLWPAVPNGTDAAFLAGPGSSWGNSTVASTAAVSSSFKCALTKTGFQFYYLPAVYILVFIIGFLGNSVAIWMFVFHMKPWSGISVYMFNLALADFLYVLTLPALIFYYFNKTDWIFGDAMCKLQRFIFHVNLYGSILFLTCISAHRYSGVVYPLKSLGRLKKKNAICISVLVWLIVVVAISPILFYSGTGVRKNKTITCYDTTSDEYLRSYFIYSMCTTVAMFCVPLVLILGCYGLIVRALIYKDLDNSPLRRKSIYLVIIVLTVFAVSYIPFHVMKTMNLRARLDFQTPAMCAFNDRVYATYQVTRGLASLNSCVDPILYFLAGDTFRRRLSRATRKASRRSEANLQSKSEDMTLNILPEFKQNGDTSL

CSCCNc1nc(SCCC(F)(F)F)nc2c1ncn2[C@@H]1O[C@H](COP(=O)(O)OP(=O)(O)C(Cl)(Cl)P(=O)(O)O)[C@@H](O)[C@H]1O [AR-C69931MX, N-[2-(methylthio)ethyl]-2-[(3,3,3-trifluoropropyl)thio]-5′-adenylic acid, monoanhydride with dichloromethylenebisphosphonic acid]
ADP-dependent TG-HDL2 internalization, increase above control cells ([1]; ADP 100 nM + AR-C69931MX 100 nM): over 30%
effect of P2Y1 receptors silencing on the stimulation of TG-HDL2 endocytosis [2]: no effect
effect of P2Y13 receptor silencing on TG-HDL2 endocytosis after stimulation [3]: dramatic inhibition
effect of P2Y13 receptor silencing on HDL3 internalization after stimulation [4]: strong inhibition
stimulation of internalization of 125I-labelled LDL [5]: lack of stimulation

Nc1ncnc2c1ncn2[C@@H]1O[C@H](COP(=O)(O)OP(=O)(O)O)[C@@H](O)[C@H]1O [ADP, adenosine diphosphate, reference compound]
internalization of 125I-TG-HDL2 by HepG2 cells, increase above control cells ([1]; 75 μg/ml 125I-TG-HDL2, apoA-I 10 μg/ml, ADP 100 nM, AR-C69931MX 100 nM alone): 20%
effect of P2Y1 receptors silencing on the stimulation of TG-HDL2 endocytosis [2]: no effect
effect of P2Y13 receptor silencing on TG-HDL2 endocytosis after stimulation [3]: dramatic inhibition
effect of P2Y13 receptor silencing on HDL3 internalization after stimulation [4]: strong inhibition
stimulation of internalization of 125I-labelled LDL [5]: lack of stimulation
